Drawing on the METLIN SMRT retention time set (Domingo-Almenara et al. 2019), this text covers RP-LC retention time for 80 compounds.

This data set in a line: gradient 5% acetonitrile 3 min, to 50% in 2 min, to 85% in 15 min, held 3 min, 100 µL/min. To be noted: column: Zorbax Extend-C18 2.1 x 50 mm; eluents: water / acetonitrile, 0.1% formic acid. In a few lines: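 Retention time was recorded from adduct peaks, which were picked computationally and each inspected manually. Pure standards ran in mixtures of ~100 molecules on HPLC coupled to a quadrupole time-of-flight mass spectrometer, in positive and negative ionization mode, through a Zorbax Extend-C18 column (2.1 × 50 mm, 1.8 μm) at 100 μL/min. Eluents were water and acetonitrile, each with 0.1% formic acid.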
`COC(=O)c1cccc(NC(=O)c2c(O)c3cccnc3n(-c3ccc(F)cc3)c2=O)c1` gave an RP-LC retention time of 1190 s.

The compound `Cc1ccn2cc(-c3ccc(NC(=O)C(C)Oc4ccccc4)cc3)nc2n1` (stereo not given) came in with an RP-LC retention time of 672 s. With `CCCCN1C(=O)C(NC(=O)CCc2ccccc2)(C(F)(F)F)C(C(=O)OC)=C1C` (stereo not given) the figure was 1030 s; with `COc1ccccc1NC(=O)N1CCC(CNC(=O)c2ccc(Br)o2)CC1`, 744 s. With `Cc1nn2c(CNC(=O)c3cc(F)cc(F)c3)c(C)nc2s1` the figure was 651 s.

`CCOC(=O)c1noc2ncnc(N3CCC(c4ccccc4)C3)c12` (stereo not given) came in with an RP-LC retention time of 1030 s.

`Cc1c(C(=O)C(=O)Nc2ccc3c(c2)OCCO3)c2ccccc2n1C`: the RP-LC retention time is 861 s. With `O=C(NCc1ccc(Cl)cc1)c1c(O)c2cccnc2[nH]c1=O` the figure was 1000 s. Next, `COc1cccc(-c2csc(Cc3nc(-c4ccccc4Cl)no3)n2)c1`: 1150 s; `CCc1ccc(CNC(=O)C2CCc3nc(N(CC)CC)ncc3C2)cc1` (stereo not given): 786 s; `CCCC(=O)Nc1nnc(SCc2ccc(Br)cc2)s1`: 934 s. With `Cc1nnc(C2CCCCCN2C(=O)c2cnco2)o1` (stereo not given) the figure was 618 s. In turn, `CC1CCCN(CCCNC(=O)CCCn2c(=O)c3cccn3c3ccc(F)cc32)C1` (stereo not given) showed an RP-LC retention time of 650 s.

In turn, `Cc1oc2ncn(CC(=O)N3CCC(C(N)=O)CC3)c(=O)c2c1C` displayed an RP-LC retention time of 613 s. With `Cc1nc2c(sc3nc(-c4ccccc4)ccc32)c(=O)n1CC(=O)Nc1cccc(C(F)(F)F)c1` the figure was 1160 s; with `CN1C(=O)C2CCCCN2c2ccc(C(=O)NCCc3c[nH]c4ccc(Cl)cc34)cc21` (stereo not given), 921 s; with `O=C(Nc1cc(F)ccc1Cl)c1csc(-c2ccc(N3CCCC3)nc2)n1`, 994 s. With `Cc1ncc2c(n1)C[C@@H]1CC[C@H]2N1C(=O)Nc1ccccc1` the figure was 636 s.

`CC1CCCN(CCCNC(=O)c2nc3nc(-c4ccco4)cc(C(F)(F)F)n3n2)C1` (stereo not given) showed an RP-LC retention time of 641 s. With `O=C1CCCC(=O)N1CCS(=O)(=O)NCC1(c2ccccc2)CCOCC1` the figure was 678 s; with `FC1(F)CN[C@H](c2nc(-c3ccncc3)no2)C1`, 614 s. Next, `Cc1ccc(-c2ncc3c(=O)n(Cc4ccc(F)cc4)c(=O)n(C)c3n2)cc1`: 1260 s; `O=C(Nc1ccc2c(c1)OCCO2)N1CCC2(CCCCO2)CC1`: 712 s; `CCn1cnc(S(=O)(=O)N2CCCC(C(=O)Nc3ccc(F)cc3)C2)c1` (stereo not given): 726 s. Next, `CCOc1cc(=O)n2c(c1C(=O)Nc1ccc(C(=O)OC)cc1)CCCC2`: 707 s; `Cc1ccc(NC(=O)Cc2nnc(-c3cnccn3)o2)c(Cl)c1`: 720 s; `CNC(=O)c1ccc(-c2nc3cc(NS(=O)(=O)c4cc(F)ccc4C)ccc3n2C)cc1`: 832 s. Regarding `CC(C)NC(=O)Nc1cccc(Cl)c1`, the RP-LC retention time amounted to 854 s. Next, `O=C(CCNc1c(-c2cccc(F)c2)nc2cnccn12)N1CCCC1`: 670 s; `Cc1ncoc1C(=O)N1CCC(C2CCN(S(C)(=O)=O)CC2)C1` (stereo not given): 642 s. Take `CC(C)C[C@H](NC(=O)C1OC1C(=O)O)C(=O)NCCCCN=C(N)N` (stereo not given in full): the RP-LC retention time amounted to 591 s. For `Cc1nc(Nc2ccc(Br)cn2)sc1C(=O)NCCN1CCCC1`, the RP-LC retention time stood at 628 s.

In the case of `Cc1oc2ccn(Cc3ccc(F)cc3)c(=O)c2c1C(=O)NCc1cc(F)ccc1F`, the RP-LC retention time is 1130 s. With `CCn1c(C(=O)N2CCCC(C(=O)N3CCN(c4ccccc4)CC3)C2)cc2sccc21` (stereo not given) the figure was 970 s; with `COC(=O)c1cc2c(=O)n(-c3nc(-c4ccccc4)cs3)ccc2nc1C`, 1250 s; with `O=c1ccc(-c2ccc3c(c2)OCO3)nn1CCc1nc(-c2ccccc2Cl)no1`, 966 s. Next, `CC1CCN(S(=O)(=O)c2cc(C(=O)N3CCN(c4ccccc4F)CC3)n(C)c2)CC1`: 1050 s. Next, `O=C(NCc1cccc(Br)c1)c1nc(Cn2c(=O)oc3ccccc32)no1`: 895 s. As for `COc1ccc(CCc2nc(-c3ccc4c(c3)nc(C)c(=O)n4C)no2)cc1`, the RP-LC retention time stood at 946 s. `CCCC(NC(=O)CCc1ccccc1)C(=O)Nc1nc2ccccc2[nH]1` (stereo not given) showed an RP-LC retention time of 718 s. With `CC1CCN(S(=O)(=O)c2ccc3nc(N4CCN(c5ccc(F)cc5)CC4)ccc3c2)CC1` the figure was 1190 s.

Compound `CCC(C(=O)NCc1cccc(OC)c1OC)n1sc2ccccc2c1=O` (stereo not given) had an RP-LC retention time of 988 s. Next, `CC1CCCCN1C(=O)CSc1nc(-c2ccccc2)no1` (stereo not given): 1070 s.

As to `COc1ccccc1-c1noc(C2CCCN2C(=O)c2ccc(C)s2)n1` (stereo not given), the RP-LC retention time was found to be 996 s.

For `Cn1nnnc1SCC(=O)NCCn1nc(-c2ccco2)ccc1=O`, the RP-LC retention time worked out at 592 s. Next, `O=c1n(CCOc2ccccc2)nc2ccc(S(=O)(=O)N3CCOCC3)cn12`: 792 s; `COc1ccc2c(c1)C1(CCN(C(=O)NC3CCCCC3)C1)C(=O)N2` (stereo not given): 703 s.

On to `COc1cc(OC)c(NS(=O)(=O)c2cc(-c3c(C)noc3NC(C)=O)ccc2C)cc1Cl`, for which the RP-LC retention time worked out at 813 s. Next, `Cc1ccc(Cn2nnc(C(=O)N3CCSCC3)c2-n2cccc2)cc1`: 956 s; `COc1cccc(CNC(=O)c2ccc3c(c2)N(C)C(=O)c2ccccc2O3)c1`: 852 s. For `Cc1cccc(N2C(=O)CN(Cc3ccc(F)cc3)[C@H]3CS(=O)(=O)C[C@H]32)c1`, the RP-LC retention time came to 812 s. Next, `Cc1noc(C)c1CNC(=O)Cc1cccc(Cl)c1`: 742 s; `Oc1ccccc1CN1CCN(c2cc(-c3ccccc3)[nH]n2)CC1`: 610 s; `O=C(NCCOc1cccc(C(F)(F)F)c1)c1ccccc1Cl`: 907 s. Consider `CNC(=O)[C@@H]1CN(C(=O)c2cscn2)C[C@H]1c1nc(C)no1`, for which the RP-LC retention time came out at 585 s. Next, `O=C(CCn1nnc2cc(-c3noc(COc4ccc(F)cc4)n3)ccc21)N1CCCC1`: 877 s. Next, `O=C(N[C@H]1C[C@@H]2C[C@H]1CN2C(=O)c1ccc(F)c(Cl)c1)c1ccccc1`: 772 s; `O=C(NC1CCCCC1)c1csc(-c2ccc(N3CCCC3)nc2)n1`: 739 s; `O=C(Cn1ccn2nc(-c3ccccc3)c(CO)c2c1=O)N1CCCc2ccccc21`: 861 s. With `COc1ccc(CC(=O)N2CCC3(CC2)NC(=O)c2ccc(F)cc2N3C)cc1` the figure was 759 s. As to `O=C(NC1CCCC1)c1cccnc1N1CCOCC1`, the RP-LC retention time turned out to be 637 s. Take `Cc1ccc(-c2cc(C(=O)NCCc3ccc(S(N)(=O)=O)cc3)c(C)[nH]2)cc1C`: the RP-LC retention time stood at 794 s.

The compound `Cc1ccnc(Nc2nc(-c3cc(C)ccc3C)cs2)c1` yielded an RP-LC retention time of 882 s.

Regarding `CC(=O)N1CCc2ccccc2C1C(=O)NCc1cc(F)ccc1F` (stereo not given), the RP-LC retention time turned out to be 648 s. Next, `COc1ccc(-c2nc3cnccn3c2Nc2ccc(OC)c(OC)c2)cc1`: 690 s; `O=C(Nc1ccc2ncnc(N3CCCCC3)c2c1)c1cncc(Br)c1`: 665 s; `COc1ccc(NC(=O)c2cc3c(s2)CN(C2CCCC2)C3)c(C)c1`: 614 s. `CS(=O)(=O)NCC1CCC(C(=O)NCCCn2ccnc2)CC1` (stereo not given) registered an RP-LC retention time of 570 s. Regarding `COC(=O)c1ccc2c(=O)n(-c3ccc(C)c(F)c3)c(N3CCSC3)nc2c1`, the RP-LC retention time worked out at 1150 s. With `O=S(=O)(c1cccn2c(SCc3cccc(F)c3)nnc12)N1CCCC1` the figure was 831 s. With `O=C(NCc1cccs1)C1CCN(c2cnc3nccnc3c2)CC1` the figure was 632 s; with `Cc1ccc(NC(=O)C2CCCN(c3ncnc4c3nc3n4CCCCC3)C2)nc1` (stereo not given), 699 s; with `O=C(c1cc2ccccc2[nH]1)N1CCCC1`, 794 s. With `CC(C)Oc1ccccc1CN1C[C@@H]2C(=O)N(CCCN3CCCC3=O)C(=O)[C@@H]2C1` the figure was 630 s; with `COc1cccc(C(=O)Nc2ccc3c(c2)Sc2ncccc2C(=O)N3C)c1OC`, 816 s; with `COC(=O)CCc1sc(Nc2ccccn2)nc1-c1ccc(OC)cc1`, 810 s.

In turn, `COc1ccc(CN2CC3(CCN(S(=O)(=O)c4c(C)nn(C)c4C)CC3)C2=O)cc1` showed an RP-LC retention time of 761 s. `COc1ccc(NS(=O)(=O)c2cn(C(C)C)c3ncccc23)cc1OC` had an RP-LC retention time of 876 s. With `CC(C)n1cnc2cc(CNC(=O)c3ccccc3F)ccc21` the figure was 606 s; with `COc1ccc(C)cc1NC(=O)[C@@H]1[C@H](c2cc(OC)c(OC)c(OC)c2)c2cc3c(cc2[C@H](O)[C@H]1CO)OCO3`, 795 s.
